The nature of the assay: Antiosteoclast activity in mouse BMM cells assessed as reduction of RANKL-induced osteoclasts differentiation by measuring TRAP positive multinucleated cells after 4 days by light microscopy.
By IC50 is commonly meant the midpoint of a concentration-inhibition curve. As for `COc1ccc(Nc2nc3cc(NC(=O)CCCCOc4ccc(/C(N)=N/O)cc4)ccc3o2)cc1`, the IC50 worked out at 580 nM.
In the case of `CCc1ccc(Nc2nc3cc(NC(=O)CCCCOc4ccc(/C(N)=N/O)cc4)ccc3o2)cc1` it was 1310 nM; in that of `CC(c1cc2ccccc2s1)N(O)C(N)=O` (racemic) [Leutrol], above 20000 nM; in that of `N/C(=N\O)c1ccc(OCCCCC(=O)Nc2ccc3oc(Nc4ccccc4)nc3c2)cc1`, 560 nM.

These data come from BindingDB's records for doi:10.1016/j.bmc.2015.09.025 (Sookmyung Women'S University, 2015).
